The results in this text go back to patent US20050228180A1, “Alpha, omega-dicarboximide derivatives as useful uro-selective a1a adrenoceptor blockers” (priority 2002, published 2005).

Structures can show the parent of a compound that is named as a salt. Where only a bound is given, the exact number is not on record here.

Assay [1] addresses T1, α1B adrenoceptor (Rattus norvegicus, UniProt P15823).
T1 construct: from tissue; host or cells: rat liver membranes
T1 sequence (P15823 1-515): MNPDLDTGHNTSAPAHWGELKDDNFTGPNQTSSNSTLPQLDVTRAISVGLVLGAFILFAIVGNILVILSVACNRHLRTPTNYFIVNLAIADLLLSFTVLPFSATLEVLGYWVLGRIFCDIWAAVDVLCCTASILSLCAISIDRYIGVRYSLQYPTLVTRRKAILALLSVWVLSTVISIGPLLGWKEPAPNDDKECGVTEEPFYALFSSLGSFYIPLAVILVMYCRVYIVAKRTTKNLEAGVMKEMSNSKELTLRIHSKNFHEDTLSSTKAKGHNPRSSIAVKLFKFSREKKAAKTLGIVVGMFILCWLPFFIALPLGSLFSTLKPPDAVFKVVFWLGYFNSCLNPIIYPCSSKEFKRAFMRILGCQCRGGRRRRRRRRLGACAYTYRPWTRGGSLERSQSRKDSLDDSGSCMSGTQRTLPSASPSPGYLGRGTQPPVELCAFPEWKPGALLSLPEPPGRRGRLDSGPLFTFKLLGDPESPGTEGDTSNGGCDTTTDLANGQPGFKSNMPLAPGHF
Kind of assay: Radioligand binding, [3H] prazosin displacement, rat liver membranes. The settings on record: read-out: Affinity (Ki) α1B (Rat Liver). Here is the method:
(§1) Receptor binding assays were performed using native a-adrenoceptors. The affinity of different compounds for α1A and α1B adrenoceptor subtypes was evaluated by studying their ability to displace specific [^3H] prazosin binding from the membranes of rat submaxillary and liver respectively (Michel et al., Br J Pharmacol, 1989: 98:883). The binding assays were performed according to U+Prichard et al. (Eur J Pharmacol, 1978; 50:87 with minor modifications.
(§2) Submaxillary glands were isolated immediately after sacrifice. The liver was perfused with buffer (Tris HCl 50 mM, NaCl 100 mM, 10 mM EDTA pH 7.4). The tissues were homogenised in 10 volumes of buffer (Tris HCl 50 mM, NaCl 100 mM, 10 mM EDTA pH 7.4). The homogenate was filtered through two layers of wet gauge and filtrate was centrifuged at 500 g for 10 min. The supernatant was subsequently centrifuged at 40,000 g for 45 min. The pellet thus obtained was resuspended in the same volume of assay buffer (Tris HCl 50 mM, 5 mM EDTA pH 7.4) and was stored at −70° C. until the time of assay.
(§3) The membrane homogenates (150-250 μg protein) were incubated in 250 μl of assay buffer (Tris HCl 50 mM, EDTA 5 mM, pH 7.4) at 24-25° C. for 1 hour. Non specific binding was determined in the presence of 300 nM prazosin. The incubation was terminated by vacuum filtration over GF/B fibre filters. The filters were then washed with ice cold 50 mM Tris HCl buffer (pH 7.4). The filtermats were dried and bound radioactivity retained on filters was counted. The IC50 and Kd were estimated by using the non-linear curve-fitting program using G Pad Prism software. The value of inhibition constant Ki was calculated from competitive binding studies by using Cheng & Prusoff equation (Cheng & Prusoff, Biochem Pharmacol, 1973, 22: 3099-3108), Ki=IC50/(1+L/Kd) where L is the concentration of [^3H] prazosin used in the particular experiment (Table 1).

In assay [2] the target is T2, α1A adrenoceptor (Rattus norvegicus, UniProt P43140).
T2 construct: from tissue; host or cells: rat submaxillary gland membranes
T2 sequence (P43140 1-466): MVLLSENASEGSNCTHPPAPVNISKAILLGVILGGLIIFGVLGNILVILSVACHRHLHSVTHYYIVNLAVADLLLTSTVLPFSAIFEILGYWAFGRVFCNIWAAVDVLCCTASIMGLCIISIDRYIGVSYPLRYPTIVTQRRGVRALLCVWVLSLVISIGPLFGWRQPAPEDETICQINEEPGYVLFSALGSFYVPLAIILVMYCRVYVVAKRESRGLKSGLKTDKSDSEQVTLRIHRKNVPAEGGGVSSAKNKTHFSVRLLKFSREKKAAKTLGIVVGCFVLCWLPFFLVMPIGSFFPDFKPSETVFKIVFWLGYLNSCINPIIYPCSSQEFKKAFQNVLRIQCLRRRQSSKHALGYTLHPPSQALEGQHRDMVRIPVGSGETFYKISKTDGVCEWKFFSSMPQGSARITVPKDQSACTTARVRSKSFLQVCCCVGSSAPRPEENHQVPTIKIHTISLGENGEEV
Description: Radioligand binding, [3H] prazosin displacement, rat submaxillary membranes. The following applies: for Ki: [3H] prazosin displacement, rat submaxillary membranes, read-out: Affinity (Ki) α1A (Rat Submaxillary); for α1B/α1A: ratio of binding affinities, rat liver / rat submaxillary. Here is the method:
as §1, §2, §3

As usually defined, the Ki is the dissociation constant of the complex between target and ligand, obtained from inhibition or displacement. Regarding `CC(C)Oc1ccccc1N1CCN(CCCN2C(=O)C3CC=CCC3C2=O)CC1=O` (stereo not drawn) [Compound No. 54], in assay [1], the inhibition constant Ki is more than 15000 nM. Moreover, in assay [2], the Ki came to 7290 nM and the α1B/α1A is more than 2.
Consider `CC(C)Oc1cccc(O)c1N1CCN(CCCN2C(=O)C3CC=CCC3C2=O)CC1` (stereo not drawn) [Compound No. 27, 2-[3-{4-(2-isopropoxy-6-hydroxyphenyl)piperazin-1-yl}propyl]-3a,7,7a-tetrahydro-1H-isoindole-1,3(2H)-dione hydrochloride], for which the Ki in assay [1] was more than 5000 nM. Also, in assay [2], the Ki was 306 nM and the α1B/α1A came to 16.
As for `COc1ccccc1N1CCN(CCCN2C(=O)C3C(c4ccccc4)C=CC(c4ccccc4)C3C2=O)CC1.Cl` (stereo not drawn) [Compound No. 78, 2-[3-{4-(2-Methoxyphenyl)piperazin-1-yl}propyl]-4,7-diphenyl-3a,4,7,7a-tetrahydro-1H-isoindole-1,3(2H)-dione hydrochloride], in assay [1], the inhibition constant Ki is 334 nM. Besides, in assay [2], the Ki was 322 nM and the α1B/α1A worked out at 1.
In the case of `CC(=O)Nc1ccc(N2CCN(CCCN3C(=O)C4CC=CCC4C3=O)CC2)c(OC(C)C)c1.Cl` (stereo not drawn) [Compound No. 58, 2-[3-{4-(2-Isopropoxy-4-acetylaminophenyl)piperazin-1-yl}propyl]-3a,4,7,7a-tetrahydro-1H-isoindole-1,3(2H)-dione hydrochloride], the inhibition constant Ki in assay [1] was more than 1000 nM. Also, in assay [2], the inhibition constant Ki is 160 nM and the α1B/α1A stood at 10.
In the same order, the values of `CC(C)Oc1cccc(O)c1N1CCN(CCCN2C(=O)CCCC2=O)CC1` [Compound No. 37, 1-[4-(2-Isopropoxy-6-hydroxyphenyl)piperazin-1-yl]-3-(2,6-dioxopiperdin-1-yl)propane hydrochloride] are more than 1000 nM, 462 nM and more than 2.
In the case of `CC(C)Oc1ccccc1N1CCN(CCCN2C(=O)C3C(c4ccccc4)C=CC(c4ccccc4)C3C2=O)CC1` (stereo not drawn) [Compound No. 77, 2-[3-{4-(2-Isopropoxyphenyl)piperazin-1-yllpropyl]-4,7-diphenyl-3a,4,7,7a-tetrahydro-1H-isoindole-1,3(2H)-dione hydrochloride], in assay [1], the inhibitory constant (Ki) was 916 nM. For the same compound, in assay [2], the inhibition constant (Ki) was found to be 485 nM and the α1B/α1A stood at 1.9.
Turning to `CC(C)Oc1ccccc1N(CCO)CCN(CCO)CCCN1C(=O)C2CC=CCC2C1=O` (stereo not drawn) [Compound No. 51], in assay [1], the Ki was more than 15000 nM. In assay [2], the Ki worked out at 662 nM and the α1B/α1A is more than 23.
As for `CC(C)Oc1ccccc1NCCN(CC=O)CCCN1C(=O)C2CC=CCC2C1=O` (stereo not drawn) [Compound No. 50, 2-[N-{N′-(2-Isopropoxyphenyl)aminoethyl}acetaldehyde-aminopropyl]-3a,4,7,7a-tetrahydro-1H-isoindole-1,3(2H)-dione], in assay [1], the inhibition constant Ki was more than 1000 nM. In assay [2], the Ki amounted to 47 nM and the α1B/α1A is more than 21.
As for `CC(C)Oc1ccccc1N1CCN(CCCN2C(=O)C3=CC=CCC3C2=O)CC1.Cl` (stereo not drawn) [Compound No. 59, 2-[3-{4-(2-Isopropoxyphenyl)piperazin-1-yl}propyl]-7,7a-dihydro-1H-isoindole-1,3(2H)-dione hydrochloride], in assay [1], the Ki amounted to 48 nM. In assay [2], the Ki came out at 2.3 nM and the α1B/α1A came out at 21.
In the case of `CC(C)Oc1ccccc1[N+]1([O-])CCN(CCCN2C(=O)C3CC=CCC3C2=O)CC1` (stereo not drawn) [Compound No. 64, 2-[3-{4-(2-Isopropoxyphenyl)piperazin-1-yl,4-N-oxide}propyl]-3a,4,7,7a-tetrahydro-1H-isoindole-1,3(2H)-dione], in assay [1], the Ki is 870 nM. Besides, in assay [2], the inhibition constant Ki amounted to 28.5 nM and the α1B/α1A is 31.
`CCOc1ccccc1N1CCN(CCN2C(=O)C3CC=CCC3C2=O)CC1.Cl` (stereo not drawn) [Compound No. 15, 2-[2-{4-(2-Ethoxyphenyl)piperazin-1-yl}ethyl]-3a,4,7,7a-tetrahydro-1H-isoindole-1,3(2H)-dione hydrochloride]: the Ki in assay [1] worked out at 346 nM; in assay [2] it was 35 nM. The α1B/α1A in assay [2] is recorded as 10.
`CC(C)Oc1ccccc1N1CCN(CCCN2C(=O)C3CC=CCC3C2=O)C1=O` (stereo not drawn) [Compound No. 67, 2-[3-{3-(2-Isopropoxyphenyl)imidazolidon-1-yl}propyl]-3a,4,7,7a-tetrahydro-1H-isoindole-1,3(2H)-dione]: the inhibition constant Ki is more than 10000 nM in assay [1] and 189 nM in assay [2]. Moreover, the α1B/α1A in assay [2] is more than 53.
In the case of `CC(C)Oc1ccccc1NCCNCCCN1C(=O)[C@H]2CC=CC[C@H]2C1=O` [Compound No. 42, 2-[N-{N′-(2-Isopropoxyphenyl)aminoethyl}aminopropyl]-3a,4,7,7a-tetrahydro-1H-isoindole-1,3(2H)-dione hydrochloride], in assay [1], the Ki amounted to 781 nM. For the same compound, in assay [2], the inhibition constant Ki came to 19 nM and the α1B/α1A is listed as 41.
Regarding `CC(C)Oc1ccccc1N1CCN(C(=O)CCN2C(=O)CCCC2=O)CC1.Cl` [Compound No. 49, 1-[4(2-Isopropoxyphenyl)piperazin-1-yl]-1-oxo-3-(2,6-dioxopiperidin-1-yl)propane hydrochloride], the inhibitory constant (Ki) in assay [1] is more than 1000 nM. In assay [2], the inhibitory constant (Ki) was more than 1000 nM and the α1B/α1A came to 1.
Take `CC(C)Oc1ccccc1N1CCN(CCCN2C(=O)[C@@H]3[C@H](C2=O)[C@H]2C=C[C@@H]3O2)CC1` [Compound No. 61, 2-[3-{4-(2-Isopropoxyphenyl)piperazin-1-yl}-propyl]-exo-4,7-epoxy-3a,4,7,7a-tetrahydro-1H-isoindole-1,3(2H)-dione hydrochloride]: the results for the inhibition constant (Ki) in assay [1] and in assay [2] were 29 nM and 0.93 nM, respectively. Also, the α1B/α1A in assay [2] worked out at 31.
Consider `O=C1C2CC=CCC2C(=O)N1CCC[N+]1([O-])CCN(c2ccccc2O)CC1` (stereo not drawn) [Compound No. 22, 2-[3-{4-(2-Hydroxyphenyl)piperazin-1-yl, 1-N-oxide}propyl]-3a,4,7,7a-tetrahydro-1H-isoindole-1,3(2H)-dione], for which, in assay [1], the inhibitory constant (Ki) was 1090 nM. Also, in assay [2], the Ki is 1590 nM and the α1B/α1A turned out to be 0.7.
As for `CC(C)Oc1ccccc1N(CCO)CCNCCCN1C(=O)C2CC=CCC2C1=O` (stereo not drawn) [Compound No. 68, 2-[N-{N′-(2-Isopropoxyphenyl)aminoethyl}aminopropyl-N′-(β-hydroxyethyl]-3a,4,7,7a-tetrahydro-1H-isoindole-1,3(2H)-dione hydrochloride], in assay [1], the Ki is more than 10000 nM. Further, in assay [2], the Ki came out at 229 nM and the α1B/α1A is more than 44.
Regarding `CC(C)Oc1c(O)cccc1N1CCN(CCCN2C(=O)CCCC2=O)CC1.Cl` [Compound No. 38, 1-[4-(2-Isopropoxy-3-hydroxyphenyl)piperazin-1-yl]-3-(2,6-dioxopiperidin-1-yl)propane hydrochloride], in assay [1], the Ki was 760 nM. In assay [2], the Ki amounted to 141 nM and the α1B/α1A is recorded as 5.
`COc1ccccc1NCCNCCCN1C(=O)CCCC1=O.Cl` [Compound No. 57, 1-[N—N-{N′-(2-Methoxyphenyl)aminoethyl}]-3-(2,6-dioxopiperidin-1-yl)aminopropane hydrochloride]: in assay [1], the inhibition constant Ki is more than 1000 nM. In assay [2], the inhibitory constant (Ki) was more than 1000 nM and the α1B/α1A is recorded as 1.
